Broadly, the IC50 is the point on the concentration scale where inhibition reaches its midpoint. By Ki is commonly meant a dissociation constant, usually derived from enzyme kinetics or from competition with a known ligand.

The target of one assay is T1, UGT1A1 (Homo sapiens, UniProt P22309).
T1 sequence (P22309 26-533): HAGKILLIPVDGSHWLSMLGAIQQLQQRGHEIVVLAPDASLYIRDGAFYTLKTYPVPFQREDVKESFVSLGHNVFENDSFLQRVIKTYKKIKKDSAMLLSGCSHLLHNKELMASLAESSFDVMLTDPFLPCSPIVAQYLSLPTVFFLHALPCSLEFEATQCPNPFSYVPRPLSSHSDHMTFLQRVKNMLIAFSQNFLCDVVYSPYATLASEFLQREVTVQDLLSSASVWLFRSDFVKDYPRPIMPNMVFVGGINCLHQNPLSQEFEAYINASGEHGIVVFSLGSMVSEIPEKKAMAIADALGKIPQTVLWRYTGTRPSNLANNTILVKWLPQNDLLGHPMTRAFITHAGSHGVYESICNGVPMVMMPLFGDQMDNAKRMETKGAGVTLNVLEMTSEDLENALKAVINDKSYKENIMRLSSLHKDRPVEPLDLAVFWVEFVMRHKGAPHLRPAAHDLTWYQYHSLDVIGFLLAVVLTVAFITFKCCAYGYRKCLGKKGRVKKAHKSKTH
Nature of the assay: Inhibition of recombinant UGT1A1 activity (4-MU glucuronidation). On the procedure:
(§1) A panel of recombinant human UGT supersomes (UGT1A1, UGT1A3, UGT1A4, UGT1A6, UGT1A7, UGT1A8, UGT1A9, UGT1A10, UGT2B4, UGT2B7, UGT2B15, and UGT2B17) expressed in baculovirus-infected insect cells were purchased from BD Gentest Corp. (Woburn, MA, USA).
(§2) 4-MU, a nonselective substrate of UGTs, was used as probe substrate for all UGTs except UGT1A4. Incubations with each individual enzyme were conducted using conditions previously described. There was a 5 min preincubation step at 37°C before the reaction was started by addition of UDPGA. The incubation mixtures were then centrifuged at 20,500 ×g for 15 min to obtain the supernatant. Aliquots (20 μL) were then analyzed by HPLC. The HPLC system (SHIMADZU, Kyoto, Japan) consisted of an SCL-10A system controller, two LC-10AT pumps, a SIL-10A auto injector, and a SPD-10AVP UV detector. Chromatographic separation was achieved using a Kromasil ODS column (4.6 × 150 mm I.D., 5 μm particle size) at a flow rate of 1 mL/min and UV detection at 316 nm. The mobile phase consisted of 10 mM KH2PO4, pH 2.7 (A) and acetonitrile (B). The following gradient was applied at a flow rate of 1 mL/min: 0–4 min 80% A and 20% B, 4.1–8 min 50% A and 50% B, 8.1–12 min, 30% A and 70% B. All experiments were performed in two independent experiments in duplicate.
A typical incubation mixture contained recombinant human UGTs, 5 mM MgCl2, 5 mM UDPGA, 50 μg/mg protein alamethicin, 50 mM Tris-HCl buffer (pH 7.4), and various probe substrates of UGTs in the absence or presence of different concentrations of inhibitors. […] The final concentration of DMSO in the incubation system was 1% (v/v). […]
Inhibition data from experiments were graphically represented by Dixon plots. K i values were calculated by nonlinear regression using the equations for competitive inhibition (1), noncompetitive inhibition (2), or mixed inhibition (3), [22] […] The type of inhibition was determined from the enzyme inhibition models. Goodness of fit to kinetic and inhibition models was assessed from the F statistic, r ^2 values, parameter standard error estimates, and 95% confidence intervals. […]

A further assay addresses T2, UGT1A7 (Homo sapiens, UniProt Q9HAW7).
T2 sequence (Q9HAW7 26-530): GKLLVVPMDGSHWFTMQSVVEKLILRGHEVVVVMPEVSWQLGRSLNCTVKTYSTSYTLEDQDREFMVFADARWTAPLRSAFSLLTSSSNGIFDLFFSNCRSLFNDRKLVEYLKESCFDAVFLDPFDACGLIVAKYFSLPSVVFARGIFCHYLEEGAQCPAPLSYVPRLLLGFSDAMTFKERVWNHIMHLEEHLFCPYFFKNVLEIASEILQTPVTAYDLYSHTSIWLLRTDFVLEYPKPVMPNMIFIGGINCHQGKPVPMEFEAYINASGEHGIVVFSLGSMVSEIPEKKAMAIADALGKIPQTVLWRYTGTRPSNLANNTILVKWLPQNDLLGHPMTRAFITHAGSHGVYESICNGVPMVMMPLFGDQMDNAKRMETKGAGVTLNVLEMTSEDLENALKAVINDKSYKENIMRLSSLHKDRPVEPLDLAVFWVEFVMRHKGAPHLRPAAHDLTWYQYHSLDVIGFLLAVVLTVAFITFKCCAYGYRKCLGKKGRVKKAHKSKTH
The assay can be described thus: Inhibition of recombinant UGT1A7 activity (4-MU glucuronidation). On the procedure:
as §1, §2
A typical incubation mixture contained recombinant human UGTs, 5 mM MgCl2, 5 mM UDPGA, 50 μg/mg protein alamethicin, 50 mM Tris-HCl buffer (pH 7.4), and various probe substrates of UGTs in the absence or presence of different concentrations of inhibitors. […] The final concentration of DMSO in the incubation system was 1% (v/v). […] Known UGT inhibitors were used as positive controls: diclofenac for UGT1A1, UGT1A6, UGT1A7, and UGT1A9; androsterone for UGT1A3, UGT2B7, and UGT2B15, phenylbutazone for UGT1A8 and UGT1A10, and hecogenin for UGT1A4, respectively. There is no positive control reported available for UGT2B4 and UGT2B17. The negative controls are the incubation without UDPGA. […] The final concentration of DMSO in the incubation system was 1% (v/v). […] There was a 5 min preincubation step at 37°C before the reaction was started by the addition of UDPGA. Incubation times were 120 min for UGT1A1, UGT1A10, UGT2B4, UGT2B15, and UGT2B17, 75 min for UGT1A3, and 30 min for UGT1A4, UGT1A6, UGT1A7, UGT1A8, and UGT1A9. The reactions were quenched by adding 100 μL acetonitrile and internal standard. The incubation mixtures were then centrifuged at 20,500 ×g for 15 min to obtain the supernatant. An aliquot of the supernatant was used for HPLC analysis as described above. All experiments were performed in two independent experiments in duplicate.
Inhibition data from experiments were graphically represented by Dixon plots. K i values were calculated by nonlinear regression using the equations for competitive inhibition (1), noncompetitive inhibition (2), or mixed inhibition (3), [22] (1) v =VmaxS/Km(1+(I/Ki))+S, (2) v =VmaxS/(Km+S)(1+(I/Ki)), (3) v =VmaxS/Km (1+(I/Ki))+S(1+(I/αKi)), where v is the velocity of the reaction; S and I are the substrate and inhibitor concentrations, respectively; K i is the inhibition constant describing the affinity of the inhibitor for the enzyme; K m is the substrate concentration at half of the maximum velocity (V max) of the reaction; α reflects the effect of inhibitor on the affinity of the enzyme for its substrate. The type of inhibition was determined from the enzyme inhibition models. Goodness of fit to kinetic and inhibition models was assessed from the F statistic, r ^2 values, parameter standard error estimates, and 95% confidence intervals. Kinetic constants are reported as the mean value ± standard error of the parameter estimate.

As to `COc1ccc(-c2oc3c(CC=C(C)C)c(O[C@@H]4O[C@H](CO)[C@@H](O)[C@H](O)[C@H]4O)cc(O)c3c(=O)c2O[C@@H]2O[C@@H](C)[C@H](O)[C@@H](O)[C@H]2O)cc1` [Icariin], the half-maximal inhibitory concentration (IC50) on UGT1A1 and on UGT1A7 was greater than 100 µM throughout.
`COc1ccc(-c2oc3c(CC=C(C)C)c(O[C@@H]4O[C@H](CO)[C@@H](O)[C@H](O)[C@H]4O)cc(O)c3c(=O)c2O)cc1` [Icariside I]: the IC50 at UGT1A1 and on UGT1A7 was greater than 100 µM in each case.
As for `COc1ccc(-c2oc3c(CC=C(C)C)c(O)cc(O)c3c(=O)c2O)cc1` [Icaritin], at UGT1A1, the IC50 was greater than 100 µM. In addition, at UGT1A7, the IC50 came out at 0.3 µM and the inhibitory constant (Ki) was determined as 0.7 ± 0.2 µM. Moreover, the “Inhibition type against UGT1A7” value on UGT1A7 (recombinant UGT1A7) is listed as “mixed”. For the same molecule, the “α of mixed inhibition against UGT1A7” value at UGT1A7 (recombinant UGT1A7, mixed inhibition model) is 2.7.

For the origin of these results see publication PMC3479967 (Evidence-based Complementary and Alternative Medicine : eCAM, 2012).
